Among the data in patent publication US9938256B2, “Annelated benzamides” (Boehringer Ingelheim International GmbH, priority 2015, dated 2018) are IC50 values, retold here.

Broadly, the IC50 is the concentration that inhibits the measured activity by half.

In this assay the target is T1, ENaC (Epithelial Sodium Channel) (Mus musculus, UniProt Q61180+Q9WU38+Q9WU39).
T1 sequence (Q61180 1-699): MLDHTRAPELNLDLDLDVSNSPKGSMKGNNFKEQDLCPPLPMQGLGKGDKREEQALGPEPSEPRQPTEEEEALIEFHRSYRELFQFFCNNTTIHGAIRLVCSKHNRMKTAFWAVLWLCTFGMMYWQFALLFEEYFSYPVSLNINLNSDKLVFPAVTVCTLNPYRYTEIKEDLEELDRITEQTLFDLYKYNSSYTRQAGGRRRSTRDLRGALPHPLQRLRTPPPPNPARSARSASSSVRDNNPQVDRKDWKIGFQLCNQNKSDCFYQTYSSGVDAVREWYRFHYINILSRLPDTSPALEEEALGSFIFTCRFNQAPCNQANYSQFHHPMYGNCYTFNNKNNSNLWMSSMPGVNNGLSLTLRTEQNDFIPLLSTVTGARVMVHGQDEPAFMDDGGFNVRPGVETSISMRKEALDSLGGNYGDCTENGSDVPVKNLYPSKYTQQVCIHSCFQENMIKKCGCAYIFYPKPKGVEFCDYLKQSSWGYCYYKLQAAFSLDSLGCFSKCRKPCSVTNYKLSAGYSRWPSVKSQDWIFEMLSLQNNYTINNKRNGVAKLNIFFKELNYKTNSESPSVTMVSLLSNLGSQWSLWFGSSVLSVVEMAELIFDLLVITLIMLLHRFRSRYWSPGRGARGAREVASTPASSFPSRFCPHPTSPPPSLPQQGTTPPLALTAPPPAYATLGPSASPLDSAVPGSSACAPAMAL
T1 sequence (Q9WU38 1-638): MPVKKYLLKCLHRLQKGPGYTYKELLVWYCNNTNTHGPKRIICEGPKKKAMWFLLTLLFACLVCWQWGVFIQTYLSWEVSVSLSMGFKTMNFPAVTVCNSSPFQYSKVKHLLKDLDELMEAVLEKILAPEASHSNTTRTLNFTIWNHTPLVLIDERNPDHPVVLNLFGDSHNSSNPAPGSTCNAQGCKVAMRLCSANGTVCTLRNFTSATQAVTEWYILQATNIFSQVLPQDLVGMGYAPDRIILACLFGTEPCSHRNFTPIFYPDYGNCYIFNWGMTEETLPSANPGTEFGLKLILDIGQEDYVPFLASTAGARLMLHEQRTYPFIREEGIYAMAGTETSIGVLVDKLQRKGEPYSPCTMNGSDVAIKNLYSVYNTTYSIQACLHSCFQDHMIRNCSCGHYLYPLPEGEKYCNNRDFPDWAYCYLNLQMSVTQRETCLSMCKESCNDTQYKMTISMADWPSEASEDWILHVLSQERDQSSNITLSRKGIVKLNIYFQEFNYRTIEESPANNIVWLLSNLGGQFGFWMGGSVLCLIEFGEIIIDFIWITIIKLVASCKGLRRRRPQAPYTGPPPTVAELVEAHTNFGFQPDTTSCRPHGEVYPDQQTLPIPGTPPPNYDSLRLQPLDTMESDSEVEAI
T1 sequence (Q9WU39 1-655): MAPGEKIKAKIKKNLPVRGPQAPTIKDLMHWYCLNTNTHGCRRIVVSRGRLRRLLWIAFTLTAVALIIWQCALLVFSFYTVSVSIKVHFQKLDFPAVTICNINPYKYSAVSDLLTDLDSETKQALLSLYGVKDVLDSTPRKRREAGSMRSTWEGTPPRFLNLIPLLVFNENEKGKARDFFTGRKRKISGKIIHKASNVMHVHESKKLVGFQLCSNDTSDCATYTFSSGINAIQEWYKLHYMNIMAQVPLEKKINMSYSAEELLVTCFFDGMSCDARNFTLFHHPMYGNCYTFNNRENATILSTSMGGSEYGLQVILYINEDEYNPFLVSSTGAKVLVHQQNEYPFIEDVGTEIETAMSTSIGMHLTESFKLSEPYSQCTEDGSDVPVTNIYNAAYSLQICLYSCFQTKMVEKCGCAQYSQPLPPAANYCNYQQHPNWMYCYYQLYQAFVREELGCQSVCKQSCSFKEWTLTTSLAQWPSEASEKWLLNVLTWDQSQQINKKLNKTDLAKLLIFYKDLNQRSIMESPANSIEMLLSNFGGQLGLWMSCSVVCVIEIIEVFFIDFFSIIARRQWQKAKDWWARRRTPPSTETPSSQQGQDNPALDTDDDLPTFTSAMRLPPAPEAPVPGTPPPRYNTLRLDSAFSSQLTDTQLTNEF
Briefly: Ussing Chamber assay (amiloride sensitive short circuit current in M-1 cells). The assay is classed as cell-based. The settings on record: Mouse kidney M-1 cells, apical administration, 37° C. As for the experimental part: The IC50 values of the example compounds given above were determined in the Ussing Chamber assay. Ussing Chamber: Mouse kidney M-1 cells were cultivated in DMEM containing 5% FCS and 5 μM dexamethasone for 10 to 12 days on polyester transwell filters. Filters were inserted into a teflon-coated well-plate which fit into the ussing chamber system. Prior to measurement the medium of M-1 cells was replaced with Caco-2 transport buffer (Invitrogen, Germany). During measurements, the Ussing chamber temperature was kept at 37° C. Short circuit currents (I_sc) were measured in the voltage-clamp mode with the software package Lab View for data acquisition and analysis. The transepithelial electrical resistance (TEER) was determined by the application of voltage steps of ±5 mV every 5 sec. Compounds were administered at a final concentration of 3 μM or at increasing concentrations (1-3-10 μM) to the apical solution. At the end of each experiment the amiloride sensitive I_SC was measured by adding 3 μM amiloride to the apical compartment. Results are expressed as inhibition in percent of the amiloride effect or as IC50. With the example compounds given above, the following IC50 values were determined in the Ussing Chamber assay: […]
`CCn1c(CNC(=O)c2nc(Cl)cnc2N)[n+](CC)c2ccc(C(=O)N(C)CCCNC)cc21` [Example 1.02] showed an IC50 of 4 nM.

On to `CCn1c(CNC(=O)c2nc(Cl)cnc2N)[n+](CC)c2ccc(C(=O)N3CCN(C)CC3)cc21` [Example 1.07], for which the IC50 came out at 5 nM. This IC50 and that of the compound before are within 1.5-fold of each other.

Regarding `CCn1c(CNC(=O)c2nc(Cl)cnc2N)[n+](CC)c2ccc(C(=O)N(CCN)CC(C)C)cc21` [Example 1.05], the IC50 came to 8 nM. This IC50 is about 1.6-fold higher than that of the compound before.

Take `CCCCN1CCN(C(=O)c2ccc3c(c2)[n+](CC)c(CNC(=O)c2nc(Cl)cnc2N)n3CC)CC1` [Example 1.18]: the 50% inhibitory concentration (IC50) worked out at 5 nM.

`CCn1c(CNC(=O)c2nc(Cl)cnc2N)[n+](CC)c2ccc(C(=O)NCCCNC)cc21` [Example 1.04] yielded an IC50 of 3 nM.

For `CCn1c(CNC(=O)c2nc(Cl)cnc2N)[n+](CC)c2ccc(C(=O)N3CCNCC3)cc21` [Example 1.01], half-maximal inhibition (IC50) required 7 nM.

In turn, `CCn1c(CNC(=O)c2nc(Cl)cnc2N)[n+](CC)c2ccc(C(=O)N(C)CCN(C)C)cc21` [Example 1.20] displayed an IC50 of 6 nM.

For `CCn1c(CNC(=O)c2nc(Cl)cnc2N)[n+](CC)c2ccc(C(=O)N(CCN)CCN)cc21` [Example 1.13], the IC50 was 7 nM.

In the case of `CCn1c(CNC(=O)c2nc(Cl)cnc2N)[n+](CC)c2ccc(C(=O)NCCN3CCOCC3)cc21` [Example 1.03], half-maximal inhibition (IC50) required 7 nM.

The compound `CCn1c(CNC(=O)c2nc(Cl)cnc2N)[n+](CC)c2ccc(C(=O)N(C)CCN3CCOCC3)cc21` [Example 1.15] showed an IC50 of 6 nM. This IC50 and that of the compound before are within 1.5-fold of each other.

Compound `CCn1c(CNC(=O)c2nc(Cl)cnc2N)[n+](CC)c2ccc(C(=O)N(C)CCCN(C)C)cc21` [Example 1.17] gave an IC50 of 7 nM.

`CCn1c(CNC(=O)c2nc(Cl)cnc2N)[n+](CC)c2ccc(C(=O)NCCNC)cc21` [Example 1.08] returned an IC50 of 6 nM.

Regarding `CCn1c(CNC(=O)c2nc(Cl)cnc2N)[n+](CC)c2cc(C(=O)N3CCC(N(C)C)CC3)ccc21` [Example 1.12], 4 nM corresponded to half-maximal inhibition (IC50). Compared with the last compound, the IC50 is about 1.5-fold lower.

As to `CCn1c(CNC(=O)c2nc(Cl)cnc2N)[n+](CC)c2ccc(C(=O)NC[C@H](O)[C@@H](O)[C@H](O)[C@H](O)CO)cc21` [Example 1.09], half-maximal inhibition (IC50) was put at 6 nM.

Take `CCn1c(CNC(=O)c2nc(Cl)cnc2N)[n+](CC)c2ccc(C(=O)N3CCC(NC(=O)CN(C)C)CC3)cc21` [Example 1.11]: the IC50 turned out to be 5 nM.

Consider `CCn1c(CNC(=O)c2nc(Cl)cnc2N)[n+](CC)c2ccc(C(=O)NCCN(C)C)cc21` [Example 1.06], for which half-maximal inhibition (IC50) required 4 nM.

The compound `CCn1c(CNC(=O)c2nc(Cl)cnc2N)[n+](CC)c2cc(C(=O)N3CCN(CP(C)(C)=O)CC3)ccc21` [Example 1.16] came in with an IC50 of 12 nM.

Compound `CCn1c(CNC(=O)c2nc(Cl)cnc2N)[n+](CC)c2ccc(C(=O)NCCCN)cc21` [Example 1.10] returned an IC50 of 4 nM.

In the case of `CCn1c(CNC(=O)c2nc(Cl)cnc2N)[n+](CC)c2ccc(C(=O)N3CCCNCC3)cc21` [Example 1.19], the IC50 was 4 nM.

`CCn1c(CNC(=O)c2nc(Cl)cnc2N)[n+](CC)c2ccc(C(=O)N3CCC(NC(=O)CN)CC3)cc21` [Example 1.21] registered an IC50 of 5 nM. The IC50 values of the last two compounds are within 1.5-fold of each other.

Turning to `CCn1c(CNC(=O)c2nc(Cl)cnc2N)[n+](CC)c2cc(C(=O)NCCOCP(C)(C)=O)ccc21` [Example 1.22], 13 nM corresponded to half-maximal inhibition (IC50).

The compound `CCn1c(CNC(=O)c2nc(Cl)cnc2N)[n+](CC)c2ccc(C(=O)N(C)CCNC)cc21` [Example 1.14] registered a half-inhibitory concentration (IC50) of 4 nM.
